The target in one experiment is T1, rat nNOS (Rattus norvegicus, UniProt P29476).
T1 construct: made in house; host or cells: E. coli (plasmid pCWnNOS)
The experiment is described as follows: NOS enzyme inhibitory assay (hemoglobin capture), nNOS. In kind it is biochemical. As to conditions: Table 1a; for Selectivity n/i: Ki(iNOS)/Ki(nNOS); for Ki: apparent Ki calculated from IC50, Km […], read-out: calc. Ki nNOS; for IC50: rat nNOS, 10 μM L-arginine. As for the experimental part: (§1) All of the NOS isoforms used were recombinant enzymes overexpressed in E. coli from different sources. Nitric oxide formation from NOS was monitored by the hemoglobin capture assay as described in the literature.
After approximately 48 h of post-induction incubation in the dark at 25° C. the cells were pelleted at 5300×g, transferred to 50 mL conical tubes, and stored at −80° C.
nNOS purification: Cell pellets from 2.0 L of culture were resuspended in sonication Buffer A (50 mM Tris Base Buffer, pH 8.0, 10% glycerol), 2 mg/ml lysozyme. 0.5 mM L-arginine. 1 mM EDTA, 0.1 mM PMSF, 1 µg/ml antipain, and 1 μM each of leupeptin, […], and […]) and lysed by sonication. Centrifugation for 1 h at 100000×g yielded supernatant which contained nNOS active enzyme. The supernatant was brought to 2 mM CaCl2 and the protein was loaded onto a 15 ml calmodulin-Sepharose column equilibrated with Buffer A containing 2 mM CaCl2. The column was washed with 100 ml Buffer B (50 mM Hepes, 5 mM DTT, and […]) containing 2 mM CaCl2, 0.5 mM L-arginine, and 10 μM BH4, and eluted with 30 ml Buffer B supplemented with 0.3 M NaCl, 5 mM EGTA, 0.5 mM L-arginine, and 10 μM BH4. The protein was then loaded onto a 5 ml 2′,5′-ADP-Sepharose column equilibrated with Buffer B supplemented with 0.3 M NaCl, 0.5 mM L-arginine, and 10 μM BH4. The column was washed with 25 ml Buffer B containing 0.5 mM L-arginine and 10 μM BH4, and then 25 ml of Buffer B only supplemented with 10 μM BH4 (without L-arginine). Neuronal NOS was eluted with 20 ml Buffer B supplemented with 10 mM 2′(3′)-AMP, 10 μM BH4 and 0.3 M NaCl. The 20 ml eluent was then concentrated to 5 ml by ultrafiltration. The above concentration operation was repeated twice more with 10 ml Buffer B supplemented with 10 µM BH4 to give the purified neuronal NOS.
Nitric oxide formation from NOS was monitored by the hemoglobin capture assay as described previously.
(§2) The selectivity of an inhibitor is defined as the ratio of the respective Ki values.

In the next experiment the target is T2, murine iNOS (Mus musculus, UniProt P29477).
T2 construct: made in house; host or cells: E. coli (plasmid pCWiNOS)
The experiment can be described thus: NOS enzyme inhibitory assay (hemoglobin capture), iNOS. The format is biochemical. As to conditions: Table 1a; for Ki: apparent Ki calculated from IC50, Km […], read-out: calc. Ki iNOS; for IC50: murine iNOS, 10 μM L-arginine.
From the text: as §1
Enzyme inhibitory assay. All of the NOS isoforms used are recombinant enzymes overexpressed in E. coli from different sources.
iNOS expression: An overnight culture of pCWiNOS was used to inoculate (1:100) larger cultures of Terrific Broth media (12 g/L tryptone, 24 g/L yeast extract, 4 mL/L glycerol, 17 mM KH2PO4, and 72 mM K2HPO4) containing 50 μg/mL ampicillin and 34 μg/mL chloramphenicol at 37° C. At an OD600 of ˜0.5, the culture was cooled to 25° C. and induced by the addition of 1 mM IPTG (final concentration). After approximately 24 h of growth at 25° C., the cells were pelleted at 5300×g, transferred to 50 mL conical tubes, and stored at −80° C.
iNOS purification: Cell pellets from 1.0 L of culture were resuspended in sonication buffer (50 mM Hepes, pH 7.4, 10% glycerol, 10 μg/mL benzamidine, 5 μg/mL leupeptin, 0.2 mM of PMSF, and 1 μg/mL each of pepstatin, chymostatin, and antipain) and lysed by sonication. Centrifugation for 20 min at 13000×g yielded supernatant which contained iNOS active enzyme. iNOS supernatant was loaded onto 1 g of a 2′,5′-ADP-Sepharose 4B resin column. The column was then washed with 20 ml iNOS purification buffer (10 mM K2HPO4, 10% glycerol, 0.5 mM L-arginine, pH 7.4) and 10 μM BH4. Inducible NOS was eluted with 30 ml iNOS purification buffer supplemented with 10 mM 2′(3′)-AMP, 10 μM BH4, and 0.3 M NaCl. The eluent was concentrated to 5 ml by ultrafiltration. The above concentration operation was repeated three times more with 10 ml Hepes buffer supplemented with 10 μM BH4, to give purified inducible NOS.
Nitric oxide formation from NOS was monitored by the hemoglobin capture assay as described previously. (Hevel, J. M.; Marletta, M. A. Nitric Oxide Synthase Assays. Methods Enzymol. 1994, […], 250-258).
as §2

The structures appear in SMILES notation.

On to `Cl.Cl.Nc1cccc(CC2CN(Cc3ccccc3)CC2O)n1` (racemic) [Compound P-1], for which, on rat nNOS, the Selectivity n/i is recorded as 11.71, the Ki was 78.5 µM and half-maximal inhibition (IC50) required 682 µM. Further, on murine iNOS, the Ki is 919 µM and the midpoint of inhibition, the IC50, lay at 2030 µM.
For the compound `Cl.Cl.Cl.Nc1cccc(C[C@H]2CN(Cc3ccccc3)C[C@@H]2NCCCc2ccccc2)n1` (racemic) [Compound P-2], on rat nNOS, the Selectivity n/i was found to be 4.3, the Ki was 14 µM and 122 µM corresponded to half-maximal inhibition (IC50). In addition, at murine iNOS, the Ki was 60.1 µM and the half-maximal inhibitory concentration (IC50) is 132 µM.
The corresponding values for `Cl.Cl.Cl.Nc1cccc(C[C@H]2CN(Cc3ccccc3)C[C@@H]2NCCCO)n1` (racemic) [Compound P-3] are 9.19, 190 µM, 1650 µM, 1750 µM and 3860 µM.
The corresponding values for `Cl.Cl.Cl.Nc1cccc(C[C@H]2CN(Cc3ccccc3)C[C@H]2NCCCc2ccccc2)n1` (racemic) [Compound P-4] are 12.71, 47.9 µM, 417 µM, 609 µM and 1340 µM.
As to `Cl.Cl.Cl.Nc1cccc(CC2CN(Cc3ccccc3)CC2NCCCO)n1` (racemic) [Compound P-5], on rat nNOS, the Selectivity n/i is 8.27, the Ki is 305 µM and the IC50 came to 2650 µM. Also, at murine iNOS, the Ki is 2520 µM and half-maximal inhibition (IC50) required 5560 µM.
Turning to `Cl.Cl.Cl.NCCN1C[C@H](Cc2cccc(N)n2)[C@@H](O)C1` (racemic) [Compound P-6], on rat nNOS, the Selectivity n/i amounted to 8.41, the Ki was 12.4 µM and the IC50 is 108 µM. Moreover, at murine iNOS, the Ki was 105 µM and 231 µM corresponded to half-maximal inhibition (IC50).
Consider `Cl.Cl.Cl.Cl.NCCN1CC(Cc2cccc(N)n2)C(NCCCc2ccccc2)C1` (racemic) [Compound P-7], for which, on rat nNOS, the Selectivity n/i stood at 109.99, the Ki is 3.98 µM and inhibition was half-maximal at 34.6 µM (IC50). At murine iNOS, the Ki is 438 µM and the IC50 was 965 µM.
As for `NCCN1CC(Cc2cccc(N)n2)C(NCCCO)C1` (racemic) [Compound P-8], on murine iNOS, the Ki was 652 µM and 1440 µM corresponded to half-maximal inhibition (IC50).
On to `Cl.Cl.Cl.Cl.NCCN1CC(Cc2cccc(N)n2)C(NCCCc2ccccc2)C1` (racemic) [Compound P-9], for which, at rat nNOS, the Selectivity n/i is 10.28; the Ki was 28.6 µM; the midpoint of inhibition, the IC50, lay at 249 µM. Also, on murine iNOS, the Ki was 295 µM and the IC50 was found to be 649 µM.
`NCCN1C[C@H](Cc2cccc(N)n2)[C@H](NCCCO)C1` (racemic) [Compound P-10]: on murine iNOS, the Ki is 1250 µM and the IC50 worked out at 2760 µM.
In the same order, the values of `Nc1cccc(CC2CNCC2NCCCO)n1` (racemic) [Compound P-13] are 234 µM and 515 µM.
In the same order, the values of `Nc1cccc(C[C@H]2CNC[C@H]2NCCCO)n1` (racemic) [Compound P-28] are 143 µM and 315 µM.
Take `Cl.Cl.Cl.Cl.NCCNC1CC(N)CC1Cc1cccc(N)n1` (racemic) [Compound P-44]: at rat nNOS, the Selectivity n/i was found to be 21.02, the Ki is 2.47 µM and the IC50 was determined as 21.5 µM. Further, on murine iNOS, the Ki was 51.9 µM and it took 114 µM to reach half-maximal inhibition (IC50).
In the same order, the values of `Cl.Cl.Cl.Cl.NCCNC1CC(N)CC1Cc1cccc(N)n1` (racemic) [Compound P-45] are 15.51, 4.61 µM, 40.1 µM, 71.5 µM and 158 µM.
The corresponding values for `Cl.Cl.Cl.Cl.Nc1cccc(CC2CNCC2NCC2CCCN2)n1` (centres unmarked) [Compound P-23] are 9.30, 11.2 µM, 96.9 µM, 104 µM and 229 µM.
Regarding `Cl.Cl.Cl.Cl.Nc1cccc(CC2CNCC2NCC2CCCN2)n1` (centres unmarked) [Compound P-24], on rat nNOS, the Selectivity n/i is given as 21.15, the Ki was 14.5 µM and the IC50 amounted to 126 µM. At murine iNOS, the Ki was 306 µM and inhibition was half-maximal at 674 µM (IC50).
The corresponding values for `Cl.Cl.Cl.Cl.Nc1cccc(CC2CNCC2NCC2CCCN2)n1` (centres unmarked) [Compound P-25] are 7.58, 2.44 µM, 21.2 µM, 18.5 µM and 40.8 µM.
As to `Cl.Cl.Cl.Cl.Nc1cccc(C[C@@H]2CNC[C@H]2NC[C@H]2CCCN2)n1` [Compound P-26], at rat nNOS, the Selectivity n/i turned out to be 13.82, the Ki is 12.3 µM and half-maximal inhibition (IC50) was put at 107 µM. For the same compound, at murine iNOS, the Ki was 170 µM and the IC50 was determined as 375 µM.
In the same order, the values of `Cl.Cl.Cl.Cl.Nc1cccc(CC2CNCC2NCC2CCCN2)n1` (centres unmarked) [Compound P-40] are 23.95, 3.44 µM, 29.9 µM, 82.4 µM and 182 µM.
For `Cl.Cl.Cl.Cl.Nc1cccc(C[C@@H]2CNC[C@@H]2NC[C@@H]2CCCN2)n1` [Compound P-41], on rat nNOS, the Selectivity n/i is 4.67, the Ki was 5.66 µM and the IC50 was found to be 49.2 µM. Moreover, on murine iNOS, the Ki was 26.4 µM and half-maximal inhibition (IC50) was put at 58.3 µM.
In the same order, the values of `Cl.Cl.Cl.Cl.Nc1cccc(C[C@H]2CNC[C@H]2NC[C@H]2CCCN2)n1` [Compound P-42] are 31.97, 2.19 µM, 19 µM, 70 µM and 154 µM.
In the case of `Cl.Cl.Cl.Cl.Nc1cccc(C[C@@H]2CNC[C@@H]2NC[C@H]2CCCN2)n1` [Compound P-43], at rat nNOS, the Selectivity n/i turned out to be 9.22, the Ki was 4.55 µM and the IC50 worked out at 39.5 µM. Further, at murine iNOS, the Ki is 42 µM and inhibition was half-maximal at 92.5 µM (IC50).

The record behind these values is patent US7994326B2 (Northwestern University, priority 2003, dated 2011).
